Data: US9334246B2, “Substituted triazines for malaria treatment and chemoprophylaxis” (The United States of America, as represented by the …, priority 2013, dated 2016)

Key:
Type in all cases: cell-based, Plasmodium falciparum
P. falciparum C235 = assay: Malaria SYBR Green Fluorescence Assay, C235 strain; conditions: for C235: SYBR Green Assay
P. falciparum D6 = assay: Malaria SYBR Green Fluorescence Assay, D6 strain; conditions: for D6: SYBR Green Assay
P. falciparum W2 = assay: Malaria SYBR Green Fluorescence Assay, W2 strain; conditions: for W2: SYBR Green Assay

Molecule	C235 (P. falciparum C235)	D6 (P. falciparum D6)	W2 (P. falciparum W2)	further results
CSc1ccc(-c2nc(NCCCN3CCCC3)nc(C(Cl)(Cl)Cl)n2)cc1 [Cmpd 44]	638 ng/mL	462 ng/mL	204 ng/mL	
CN1CCN(c2nc(-c3ccc(S(C)(=O)=O)cc3)nc(C(Cl)(Cl)Cl)n2)CC1 [Cmpd 54]	632 ng/mL	432 ng/mL	356 ng/mL	
CN1CCC(Nc2nc(-c3ccc(C(Cl)(Cl)Cl)cc3)nc(C(Cl)(Cl)Cl)n2)CC1 [Cmpd 61]	556 ng/mL	570 ng/mL	376 ng/mL	
COc1ccccc1Nc1nc(NCCC2CCCN2C)nc(C(Cl)(Cl)Cl)n1 (centres unmarked) [Cmpd 63]	540 ng/mL	603 ng/mL	794 ng/mL	
CN1CCCC1CCNc1nc(-c2ccc(S(C)(=O)=O)cc2)nc(C(Cl)(Cl)Cl)n1 (centres unmarked) [Cmpd 75]		635 ng/mL		
CCN1CCCC(Nc2nc(Cc3ccc(OC)cc3)nc(C(Cl)(Cl)Cl)n2)C1 (centres unmarked) [Cmpd 81]	992 ng/mL	633 ng/mL	601 ng/mL	
COc1cccc(Cc2nc(NCCN3CCCC3)nc(C(Cl)(Cl)Cl)n2)c1 [Cmpd 82]			805 ng/mL	
CCN1CCCC(Nc2nc(Cc3ccc(OC)cc3)nc(C(Cl)(Cl)Cl)n2)C1 (centres unmarked) [Cmpd 86]	991 ng/mL	623 ng/mL	600 ng/mL	
CCN1CCCC(Nc2nc(-c3ccc(SC)cc3)nc(C(Cl)(Cl)Cl)n2)C1 (centres unmarked) [Cmpd 88]	77 ng/mL	79 ng/mL	69 ng/mL	
CC(=O)Nc1cccc(Nc2nc(NCCC3CCCN3C)nc(C(Cl)(Cl)Cl)n2)c1 (centres unmarked) [Cmpd 92]	164 ng/mL	122 ng/mL	106 ng/mL	
CCN1CCCC(Nc2nc(Cc3ccccc3OC)nc(C(Cl)(Cl)Cl)n2)C1 (centres unmarked) [Cmpd 94]	456 ng/mL	396 ng/mL	173 ng/mL	
CS(=O)(=O)c1ccc(-c2nc(NCCNCCO)nc(C(Cl)(Cl)Cl)n2)cc1 [Cmpd 98]	554 ng/mL	448 ng/mL	366 ng/mL	
COc1ccc(-c2nc(N3CCCNCC3)nc(C(Cl)(Cl)Cl)n2)cc1 [Cmpd 101]	158 ng/mL	182 ng/mL	117 ng/mL	
COc1ccccc1-c1nc(NCCCN2CCCC2)nc(C(Cl)(Cl)Cl)n1 [Cmpd 105]	93 ng/mL	145 ng/mL	73 ng/mL	
CCN(CC)CCNc1nc(-c2ccccc2OC)nc(C(Cl)(Cl)Cl)n1 [Cmpd 107]	158 ng/mL	212 ng/mL	95 ng/mL	
COc1ccc(-c2nc(N3CCCN(C)CC3)nc(C(Cl)(Cl)Cl)n2)cc1 [Cmpd 111]	232 ng/mL	191 ng/mL	103 ng/mL	
Cc1ccc(-c2nc(N3CCCN(C)CC3)nc(C(Cl)(Cl)Cl)n2)cc1 [Cmpd 112]	209 ng/mL	168 ng/mL	107 ng/mL	
CC(C)(C)c1ccc(-c2nc(N3CCCNCC3)nc(C(Cl)(Cl)Cl)n2)cc1 [Cmpd 115]	360 ng/mL	357 ng/mL	242 ng/mL	
CCN(CC)CCNc1nc(-c2ccccc2C)nc(C(Cl)(Cl)Cl)n1 [Cmpd 123]	67 ng/mL	57 ng/mL	31 ng/mL	
CN(Cc1ccccc1-c1cccnc1)c1nc(-c2ccc(S(C)(=O)=O)cc2)nc(C(Cl)(Cl)Cl)n1 [Cmpd 129]	233 ng/mL	170 ng/mL	102 ng/mL	

Molecule	C235 (P. falciparum C235)	D6 (P. falciparum D6)	W2 (P. falciparum W2)	further results
Cc1ccc(-c2nc(NCc3ccncc3)nc(C(Cl)(Cl)Cl)n2)cc1 [Cmpd 134]		521 ng/mL	453 ng/mL	
COc1ccccc1-c1nc(NCc2ccncc2)nc(C(Cl)(Cl)Cl)n1 [Cmpd 135]		765 ng/mL	461 ng/mL	
COc1ccccc1-c1nc(NCc2cccnc2)nc(C(Cl)(Cl)Cl)n1 [Cmpd 154]			477 ng/mL	
COc1ccc(-c2nc(NCc3cccnc3)nc(C(Cl)(Cl)Cl)n2)cc1 [Cmpd 156]			560 ng/mL	
CC(C)(C)c1ccc(-c2nc(NCc3ccccn3)nc(C(Cl)(Cl)Cl)n2)cc1 [Cmpd 170]			313 ng/mL	
CS(=O)(=O)c1ccc(-c2nc(NCCc3ccccn3)nc(C(Cl)(Cl)Cl)n2)cc1 [Cmpd 180]		819 ng/mL	478 ng/mL	
COc1ccccc1-c1nc(NCCc2cccnc2)nc(C(Cl)(Cl)Cl)n1 [Cmpd 182]		659 ng/mL	256 ng/mL	
CN1CCCC1CCNc1nc(-c2ccc(-c3ccccc3)cc2)nc(C(Cl)(Cl)Cl)n1 (centres unmarked) [Cmpd 201]			845 ng/mL	
ClC(Cl)(Cl)c1nc(NCc2cccnc2)nc(-c2ccc(-c3ccccc3)cc2)n1 [Cmpd 249]	755 ng/mL		545 ng/mL	
ClC(Cl)(Cl)c1nc(NCc2ccccn2)nc(-c2ccc(-c3ccccc3)cc2)n1 [Cmpd 250]	858 ng/mL		721 ng/mL	
Cc1ccc(-c2ccccc2-c2nc(N3CCCNCC3)nc(C(Cl)(Cl)Cl)n2)cc1 [Cmpd 263]	763 ng/mL		960 ng/mL	
COc1ccc(-c2nc(NC3CCN(C)CC3)nc(C(Cl)(Cl)Cl)n2)cc1 [Cmpd 275]	699 ng/mL		618 ng/mL	
COc1ccccc1Cc1nc(N2CCCN(C)CC2)nc(C(Cl)(Cl)Cl)n1 [Cmpd 289]		810 ng/mL	311 ng/mL	
CCN1CCC(CNc2nc(Nc3cccnc3OC)nc(C(Cl)(Cl)Cl)n2)CC1 [Cmpd 352]				D6 (SYBR Green Assay IC50) (P. falciparum D6): 0.7908 µg/mL; W2 (SYBR Green Assay IC50) (P. falciparum W2): 0.6372 µg/mL
CN1CCCC1CCNc1nc(-c2ccc(N3CCCC3)cc2)nc(C(Cl)(Cl)Cl)n1 (centres unmarked) [Cmpd 370]				D6 (SYBR Green Assay IC50) (P. falciparum D6): 0.846 µg/mL
COc1ccc(-c2nc(N3CCCN(C)CC3)nc(C(Cl)(Cl)Cl)n2)cc1OC [Cmpd 398]				W2 (SYBR Green Assay IC50) (P. falciparum W2): 0.638 µg/mL
COc1ccc(-c2nc(NC3CCN(C)CC3)nc(C(Cl)(Cl)Cl)n2)cc1OC [Cmpd 399]				W2 (SYBR Green Assay IC50) (P. falciparum W2): 0.705 µg/mL
Cc1ccc(-c2nc(N3CCN(CCO)CC3)nc(C(Cl)(Cl)Cl)n2)cc1 [Cmpd 416]				W2 (SYBR Green Assay IC50) (P. falciparum W2): 0.381 µg/mL
OCCN1CCCN(c2nc(-c3ccc(N4CCCC4)cc3)nc(C(Cl)(Cl)Cl)n2)CC1 [Cmpd 465]				C235 (SYBR Green Assay IC50) (P. falciparum C235): 0.498 µg/mL; W2 (SYBR Green Assay IC50) (P. falciparum W2): 0.222 µg/mL
Clc1ccc(-c2nc(NCCc3cnccn3)nc(C(Cl)(Cl)Cl)n2)cc1Cl [Cmpd 470]				C235 (SYBR Green Assay IC50) (P. falciparum C235): 0.258 µg/mL; W2 (SYBR Green Assay IC50) (P. falciparum W2): 0.07 µg/mL

Molecule	C235 (P. falciparum C235)	D6 (P. falciparum D6)	W2 (P. falciparum W2)	further results
Clc1cc(Cl)cc(-c2nc(NCCc3cnccn3)nc(C(Cl)(Cl)Cl)n2)c1 [Cmpd 471]				W2 (SYBR Green Assay IC50) (P. falciparum W2): 0.174 µg/mL
CSc1ccc(-c2nc(NCCc3cnccn3)nc(C(Cl)(Cl)Cl)n2)cc1 [Cmpd 543]				W2 (SYBR Green Assay IC50) (P. falciparum W2): 0.669 µg/mL
COc1ccc(-c2nc(NCCc3cnccn3)nc(C(Cl)(Cl)Cl)n2)c2ccccc12 [Cmpd 546]				C235 (SYBR Green Assay IC50) (P. falciparum C235): 0.701 µg/mL; W2 (SYBR Green Assay IC50) (P. falciparum W2): 0.361 µg/mL
CN(C)C1CCC(Nc2nc(-c3ccc(C(Cl)(Cl)Cl)cc3)nc(C(Cl)(Cl)Cl)n2)CC1 (centres unmarked) [Cmpd 597]				W2 (SYBR Green Assay IC50) (P. falciparum W2): 0.882 µg/mL
ClC(Cl)(Cl)c1ccc(C(Cl)(Cl)Cl)cc1.FC(F)(F)c1cccc(-c2nc(NCCCN3CCCC3)nc(C(Cl)(Cl)Cl)n2)c1 [Cmpd 602]				W2 (SYBR Green Assay IC50) (P. falciparum W2): 0.853 µg/mL
CS(=O)(=O)c1ccc(-c2nc(NCc3ccncc3)nc(C(Cl)(Cl)Cl)n2)cc1 [Compound 650, CS(═O)(═O)c1ccc(cc1)c2nc(NCc3ccncc3)nc(n2)C(Cl)(Cl)Cl]				W2 (SYBR Green Assay IC50) (P. falciparum W2): 0.803 µg/mL
COc1ncccc1Nc1nc(-c2ccc(S(C)(=O)=O)cc2)nc(C(Cl)(Cl)Cl)n1 [Compound 651, COc1ncccc1Nc2nc(nc(n2)C(Cl)(Cl)Cl)c3ccc(cc3)S(═O)(═O)C]				D6 (SYBR Green Assay IC50) (P. falciparum D6): 0.76 µg/mL; W2 (SYBR Green Assay IC50) (P. falciparum W2): 0.577 µg/mL
NC1(CNc2nc(-c3cccc(C(F)(F)F)c3)nc(C(Cl)(Cl)Cl)n2)CCCCC1 [Compound 663, NC1(CNC2═NC(═NC(═N2)C2═CC(═CC═C2)C(F)(F)F)C(Cl)(Cl)Cl)CCCCC1]		729 ng/mL	583 ng/mL	
NC1(CNc2nc(-c3ccccc3)nc(C(Cl)(Cl)Cl)n2)CC1 [Compound 677, NC1(CNC2═NC(═NC(═N2)C2═CC═CC═C2)C(Cl)(Cl)Cl)CC1]	910 ng/mL		527 ng/mL	
NC1(CNc2nc(-c3ccc(C(Cl)(Cl)Cl)cc3)nc(C(Cl)(Cl)Cl)n2)CC1 [Compound 679, NC1(CNC2═NC(═NC(═N2)C2═CC═C(C═C2)C(Cl)(Cl)Cl)C(Cl)(Cl)Cl)CC1]		606 ng/mL	201 ng/mL	
CC(C)(C)OC(=O)N1CC2CC1CN2c1nc(-c2ccc(Cl)c(Cl)c2)nc(C(Cl)(Cl)Cl)n1 (centres unmarked) [Compound 705, CC(C)(C)OC(═O)N1CC2CC1CN2c3nc(nc(n3)C(Cl)(Cl)Cl)c4ccc(Cl)c(Cl)c4]			851.8 ng/mL	
Cc1ccc(-c2nc(N3CC4CC3CN4C(=O)OC(C)(C)C)nc(C(Cl)(Cl)Cl)n2)cc1 (centres unmarked) [Compound 711, Cc1ccc(cc1)c2nc(nc(n2)C(Cl)(Cl)Cl)N3CC4CC3CN4C(═O)OC(C)(C)C]		812 ng/mL		
CC(C)(C)c1ccc(-c2nc(N3CCOCC3)nc(C(Cl)(Cl)Cl)n2)cc1 [Compound 734, CC(C)(C)c1ccc(cc1)c2nc(nc(n2)C(Cl)(Cl)C1)N3CCOCC3]			834 ng/mL	
CC(C)(C)c1ccc(cc1)c2nc(nc(n2)C(Cl)(Cl)Cl)N3CCCN(CCO)CC3 [Compound 738]	239.9 ng/mL		60.48 ng/mL	
CCN(CC)CCCC(C)Nc1nc(Nc2ccc(Cl)c(Cl)c2)nc(n1)C(Cl)(Cl)Cl [Compound 646]				D6 (SYBR Green Assay IC50) (P. falciparum D6): 0.6727 µg/mL; W2 (SYBR Green Assay IC50) (P. falciparum W2): 0.7354 µg/mL
CN(CCc1ccccn1)c2nc(nc(n2)C(Cl)(Cl)Cl)c3ccc(cc3)C(C)(C)C [Compound 736]			445.4 ng/mL	
CN(Cc1ccccc1c2cccnc2)c3nc(nc(n3)C(Cl)(Cl)Cl)c4ccc(cc4)C(Cl)(Cl)Cl [Compound 653]			272.1 ng/mL	
CS(═O)(═O)c1ccc(cc1)c2nc(nc(n2)C(Cl)(Cl)Cl)N3CCC(CC3)C(═O)N [Compound 690]			670 ng/mL	
